# Test results taken from US20070203159A1, “Purine compounds” (priority 2006, published 2007).
# System: not given
# Assay: not given
# Details: not given
row,Molecule,melting point
1,COc1ccc(Cn2c(Cl)nc3c(-c4ccc(Cl)o4)ncnc32)cc1,166 to 168 °C
2,CCSc1nc(-c2ccco2)c2ncn(Cc3ccc(OC)cc3)c2n1,116 to 117 °C
3,CCCOc1nc(-c2ccco2)c2ncn(Cc3ccc(OC)cc3)c2n1,119 °C
4,COc1ccc(Cn2cnc3c(-c4ccco4)nc(OC(C)C)nc32)cc1,145 to 146 °C
5,CCCCOc1nc(-c2ccco2)c2ncn(Cc3ccc(OC)cc3)c2n1,113 °C
6,COc1ccc(Cn2cnc3c(-c4ccco4)nc(OCc4ccccc4)nc32)cc1,122 °C
7,COc1ccc(Cn2cnc3c(-c4ccco4)nc(I)nc32)cc1,145 to 148 °C
8,COc1ccc(Cn2cnc3c(-c4ccco4)nc(NC(C)=O)nc32)cc1,167 to 168 °C
9,COc1ccc(Cn2cnc3c(-c4ccco4)nc(N(C(C)=O)C(C)=O)nc32)cc1,187 to 189 °C
10,CNc1nc(-c2ccco2)c2ncn(Cc3ccc(OC)cc3)c2n1,144 to 145 °C
11,COc1ccc(Cn2cnc3c(-c4ccco4)nc(N(C)C)nc32)cc1,163 to 164 °C
12,CCOc1nc(-c2ccco2)c2ncn(Cc3ccc(OC)cc3)c2n1,137 to 138 °C
13,CC#Cc1nc(-c2ccco2)c2ncn(Cc3ccc(OC)cc3)c2n1,158 to 160 °C
14,"Clc1ccc(Cn2cnc3c(-c4ccco4)ncnc32)cc1 [Example 27, 9-(4-Chlorophenylmethyl)-6-(2-furyl)-9H-purine]",156 to 159 °C
15,"Clc1ccc(Cn2cnc3c(-c4ccco4)ncnc32)cc1Cl [Example 28, 9-(3,4-Dichlorophenylmethyl)-6-(2-furyl)-9H-purine]",183 to 185 °C
16,"Fc1ccc(Cn2cnc3c(-c4ccco4)ncnc32)cc1 [Example 29, 9-(4-Fluorophenylmethyl)-6-(2-furyl)-9H-purine]",162 to 164 °C
17,"FC(F)(F)c1ccc(Cn2cnc3c(-c4ccco4)ncnc32)cc1 [Example 30, 6-(2-Furyl)-9-(4-trifluoromethylphenylmethyl)-9H-purine]",159 to 161 °C
18,"Cc1ccc(Cn2cnc3c(-c4ccco4)ncnc32)cc1 [Example 31, 6-(2-Furyl)-9-(4-methylphenylmethyl)-9H-purine]",166 to 167 °C
19,"CC(C)(C)c1ccc(Cn2cnc3c(-c4ccco4)ncnc32)cc1 [Example 32, 9-(4-tert-Butylphenylmethyl)-6-(2-furyl)-9H-purine]",185 to 187 °C
20,"COc1cccc(Cn2cnc3c(-c4ccco4)ncnc32)c1 [Example 34, 6-(2-Furyl)-9-(3-methoxyphenylmethyl)-9H-purine]",138 to 139 °C
21,"COc1ccc(Cn2cnc3c(-c4ccco4)ncnc32)cc1C [Example 35, 6-(2-Furyl)-9-(4-methoxy-3-methylphenylmethyl)-9H-purine]",169 to 170 °C
22,"COc1cc(Cn2cnc3c(-c4ccco4)ncnc32)cc(OC)c1OC [Example 36, 6-(2-Furyl)-9-(3,4,5-trimethoxyphenylmethyl)-9H-purine]",195 to 196 °C
23,"FC(F)(F)Oc1ccc(Cn2cnc3c(-c4ccco4)ncnc32)cc1 [Example 37, 6-(2-Furyl)-9-(4-trifluoromethoxyphenylmethyl)-9H-purine]",146 to 147 °C
24,"FC(F)(F)Oc1cccc(Cn2cnc3c(-c4ccco4)ncnc32)c1 [Example 38, 6-(2-Furyl)-9-(3-trifluoromethoxyphenylmethyl)-9H-purine]",133 to 135 °C
25,"CCOc1ccc(Cn2cnc3c(-c4ccco4)ncnc32)cc1 [Example 39, 9-(4-Ethoxyphenylmethyl)-6-(2-furyl)-9H-purine]",165 to 166 °C
26,"c1ccc(COc2ccc(Cn3cnc4c(-c5ccco5)ncnc43)cc2)cc1 [Example 40, 9-(4-Benzyloxyphenylmethyl)-6-(2-furyl)-9H-purine]",145 to 146 °C

row,Molecule,melting point
1,"Oc1ccc(Cn2cnc3c(-c4ccco4)ncnc32)cc1 [Example 41, 6-(2-Furyl)-9-(4-hydroxyphenylmethyl)-9H-purine]",231 to 233 °C
2,"CC(=O)Nc1ccc(Cn2cnc3c(-c4ccco4)ncnc32)cc1 [Example 44, 9-(4-Acetamidophenylmethyl)-6-(2-furyl)-9H-purine]",278 to 280 °C
3,"Nc1ccc(Cn2cnc3c(-c4ccco4)ncnc32)cc1 [Example 45, 9-(4-Aminophenylmethyl)-6-(2-furyl)-9H-purine]",195 to 197 °C
4,"COc1ccc(Cn2cnc3c(-c4ccco4)nc(F)nc32)cc1 [Example 57, 2-Fluoro-6-(2-furyl)-9-(4-methoxyphenylmethyl)-9H-purine]",210 to 215 °C
5,"COc1ccc(Cn2cnc3c(-c4ccco4)nc(N)nc32)cc1 [Example 61, 2-Amino-6-(2-furyl)-9-(4-methoxyphenylmethyl)-9H-purine]",235 to 237 °C (dec.)
6,"COc1ccc(CNc2nc(-c3ccco3)c3ncn(Cc4ccc(OC)cc4)c3n2)cc1 [Example 65, 6-(2-Furyl)-2-(4-methoxyphenylmethylamino)-9-(4-methoxyphenylmethyl)-9H-purine]",153 to 154 °C
7,"COc1ccc(Cn2cnc3c(-c4ccco4)nc(S(C)(=O)=O)nc32)cc1 [Example 70, 6-(2-Furyl)-9-(4-methoxyphenylmethyl)-2-methylsulfonyl-9H-purine]",184 to 185 °C
8,"COc1ccc(Cn2cnc3c(-c4ccco4)nc([N+](=O)[O-])nc32)cc1 [Example 72, 6-(2-Furyl)-9-(4-methoxyphenylmethyl)-2-nitro-9H-purine]",182 to 183 °C
9,"COc1ccc(Cn2cnc3c(-c4ccco4)nc(OC)nc32)cc1 [Example 74, 6-(2-Furyl)-2-methoxy-9-(4-methoxyphenylmethyl)-9H-purine]",167 to 169 °C
10,"COc1ccc(Cn2cnc3c(-c4ccco4)nc(C)nc32)cc1 [Example 76, 6-(2-Furyl)-9-(4-methoxyphenylmethyl)-2-methyl-9H-purine]",127 to 130 °C
11,"CCc1nc(-c2ccco2)c2ncn(Cc3ccc(OC)cc3)c2n1 [Example 77, 2-Ethyl-6-(2-furyl)-9-(4-methoxyphenylmethyl)-9H-purine]",119 to 120 °C
12,"COc1ccc(Cn2cnc3c(-c4ccco4)nc(C(C)C)nc32)cc1 [Example 78, 6-(2-Furyl)-9-(4-methoxyphenylmethyl)-2-(1-methylethyl)-9H-purine]",123 °C
13,"CCCCc1nc(-c2ccco2)c2ncn(Cc3ccc(OC)cc3)c2n1 [Example 79, 2-n-Butyl-6-(2-furyl)-9-(4-methoxyphenylmethyl)-9H-purine]",103 °C
14,"COc1ccc(Cn2cnc3c(-c4ccco4)nc(C4CC4)nc32)cc1 [Example 80, 2-Cyclopropyl-6-(2-furyl)-9-(4-methoxyphenylmethyl)-9H-purine]",115 to 116 °C
15,"C=Cc1nc(-c2ccco2)c2ncn(Cc3ccc(OC)cc3)c2n1 [Example 82, 2-Ethenyl-6-(2-furyl)-9-(4-methoxyphenylmethyl)-9H-purine]",94 to 95 °C
16,"C=C(OCC)c1nc(-c2ccco2)c2ncn(Cc3ccc(OC)cc3)c2n1 [Example 83, 2-(1-Ethoxyvinyl)-6-(2-furyl)-9-(4-methoxyphenylmethyl)-9H-purine]",144 to 145 °C
17,"COc1ccc(Cn2cnc3c(-c4ccco4)nc(-c4ccccc4)nc32)cc1 [Example 84, 6-(2-Furyl)-9-(4-methoxyphenylmethyl)-2-phenyl-9H-purine]",140 to 142 °C
18,"COc1ccc(Cn2cnc3c(-c4ccco4)nc(C(C)=O)nc32)cc1 [Example 86, 2-Acetyl-6-(2-furyl)-9-(4-methoxyphenylmethyl)-9H-purine]",166 to 167 °C
19,"COc1ccc(Cn2cnc3c(-c4ccco4)nc(C#N)nc32)cc1 [Example 87, 6-(2-Furyl)-9-(4-methoxyphenylmethyl)-9H-purine-2-carbonitrile]",205 to 207 °C
20,"C#Cc1nc(-c2ccco2)c2ncn(Cc3ccc(OC)cc3)c2n1 [Example 89, 2-Ethynyl-6-(2-furyl)-9-(4-methoxyphenylmethyl)-9H-purine]",155 °C
21,"COc1ccc(Cn2cnc3c(-c4ccco4)nc(C(F)(F)F)nc32)cc1 [Example 94, 6-(2-Furyl)-9-(4-methoxyphenylmethyl)-2-trifluoromethyl-9H-purine]",149 to 150 °C
22,"COc1ccc(Cn2c(Cl)nc3c(-c4ccco4)ncnc32)cc1 [Example 99, 8-Chloro-6-(2-furyl)-9-(4-methoxyphenylmethyl)-9H-purine]",156 to 157 °C
23,"COc1ccc(Cn2c(Br)nc3c(-c4ccco4)ncnc32)cc1 [Example 101, 8-Bromo-6-(2-furyl)-9-(4-methoxyphenylmethyl)-9H-purine]",150 to 151 °C
24,"COc1ccc(Cn2c(-c3ccco3)nc3c(-c4ccco4)ncnc32)cc1 [Example 103, 6,8-Di(2-furyl)-9-(4-methoxyphenylmethyl)-9H-purine]",134 to 136 °C
25,"COc1ccc(Cn2c(OC)nc3c(-c4ccco4)ncnc32)cc1 [Example 104, 6-(2-Furyl)-8-methoxy-9-(4-methoxyphenylmethyl)-9H-purine]",143 to 144 °C
26,"COc1ccc(Cn2c(O)nc3c(-c4ccco4)ncnc32)cc1 [Example 105, 6-(2-Furyl)-8-hydroxy-9-(4-methoxyphenylmethyl)-9H-purine]",249 to 251 °C

# System: Mycobacterium tuberculosis H37Rv (ATCC 27294)
# Assay: Microplate Alamar Blue Assay (MABA): primary screening and MIC determination
# Type: cell-based
# Details: Mycobacterium tuberculosis; retest at lower concentrations in the MABA; read-out: MIC
row,Molecule,MIC [µg/mL]
1,"Clc1ccc(Cn2cnc3c(-c4ccco4)ncnc32)cc1 [Example 27, 9-(4-Chlorophenylmethyl)-6-(2-furyl)-9H-purine]",6.25
2,"Clc1ccc(Cn2cnc3c(-c4ccco4)ncnc32)cc1Cl [Example 28, 9-(3,4-Dichlorophenylmethyl)-6-(2-furyl)-9H-purine]",6.25
3,"Fc1ccc(Cn2cnc3c(-c4ccco4)ncnc32)cc1 [Example 29, 9-(4-Fluorophenylmethyl)-6-(2-furyl)-9H-purine]",6.25
4,"Cc1ccc(Cn2cnc3c(-c4ccco4)ncnc32)cc1 [Example 31, 6-(2-Furyl)-9-(4-methylphenylmethyl)-9H-purine]",3.13
5,"CC(C)(C)c1ccc(Cn2cnc3c(-c4ccco4)ncnc32)cc1 [Example 32, 9-(4-tert-Butylphenylmethyl)-6-(2-furyl)-9H-purine]",12.5
6,"COc1cccc(Cn2cnc3c(-c4ccco4)ncnc32)c1 [Example 34, 6-(2-Furyl)-9-(3-methoxyphenylmethyl)-9H-purine]",6.25
7,"COc1ccc(Cn2cnc3c(-c4ccco4)ncnc32)cc1C [Example 35, 6-(2-Furyl)-9-(4-methoxy-3-methylphenylmethyl)-9H-purine]",0.78
8,"CCOc1ccc(Cn2cnc3c(-c4ccco4)ncnc32)cc1 [Example 39, 9-(4-Ethoxyphenylmethyl)-6-(2-furyl)-9H-purine]",3.13
9,"c1ccc(COc2ccc(Cn3cnc4c(-c5ccco5)ncnc43)cc2)cc1 [Example 40, 9-(4-Benzyloxyphenylmethyl)-6-(2-furyl)-9H-purine]",1.56
10,"Clc1ccc(Cn2cnc3c(-c4ccco4)nc(Cl)nc32)cc1 [Example 46, 2-Chloro-9-(4-chlorophenylmethyl)-6-(2-furyl)-9H-purine]",1.56

# Same assay, conditions: retest at lower concentrations in the MABA
row,Molecule,MIC [µg/mL]
1,2-Chloro-6-(2-furyl)-9-(4-methyloxyphenylmethyl)-9H-purine [Example 50],0.78
2,2-Cyclopentenyl-6-(2-furyl)-9-(4-methoxyphenylmethyl)-9H-purine [Example 81],6.25
